Measured values from ChEMBL document CHEMBL1201862, “PubChem BioAssay data set” (2004).
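Values below derive from 48-hour exposures of cells grown in 96-well plates, with endpoints linearly interpolated between the two concentrations bracketing the appropriate inhibition level. GI50 = concentration required for 50% inhibition of growth.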 Calls of active or inactive are those of the source. Rule as the data show it: active = GI50 up to about 1.1 µM and inactive = higher.

Tests used:
Assay in all cases: NCI tumour cell line growth inhibition, 48 h
786-0 = test system: 786-0
A498 = test system: A498
A549 = test system: A549
ACHN = test system: ACHN
CAKI-1 = test system: CAKI-1
CCRF-CEM = test system: CCRF-CEM
COLO 205 = test system: COLO 205
DU-145 = test system: DU-145
EKVX = test system: EKVX
HCC 2998 = test system: HCC 2998
HCT-116 = test system: HCT-116
HCT-15 = test system: HCT-15
HL-60 = test system: HL-60
HOP-62 = test system: HOP-62
HOP-92 = test system: HOP-92
HT-29 = test system: HT-29
Hs-578T = test system: Hs-578T
IGROV-1 = test system: IGROV-1
K562 = test system: K562
KM12 = test system: KM12
LOX IMVI = test system: LOX IMVI
M14 = test system: M14
MCF7 = test system: MCF7
MDA-MB-435 = test system: MDA-MB-435
MDA-N = test system: MDA-N
MOLT-4 = test system: MOLT-4
NCI-H226 = test system: NCI-H226
NCI-H23 = test system: NCI-H23
NCI-H460 = test system: NCI-H460
NCI-H522 = test system: NCI-H522
NCI/ADR-RES = test system: NCI/ADR-RES
OVCAR-3 = test system: OVCAR-3
OVCAR-5 = test system: OVCAR-5
OVCAR-8 = test system: OVCAR-8
RPMI-8226 = test system: RPMI-8226
RXF 393 = test system: RXF 393
SF-268 = test system: SF-268
SF-295 = test system: SF-295
SK-MEL-5 = test system: SK-MEL-5
SK-OV-3 = test system: SK-OV-3
SN12C = test system: SN12C
SNB-75 = test system: SNB-75
SR = test system: SR
SW-620 = test system: SW-620
T47D = test system: T47D
TK-10 = test system: TK-10
U-251 = test system: U-251
UACC-257 = test system: UACC-257
UACC-62 = test system: UACC-62
UO-31 = test system: UO-31
MDA-MB-231 = test system: MDA-MB-231
Malme-3M = test system: Malme-3M
OVCAR-4 = test system: OVCAR-4
PC-3 = test system: PC-3
SF-539 = test system: SF-539
SK-MEL-2 = test system: SK-MEL-2
SK-MEL-28 = test system: SK-MEL-28
SNB-19 = test system: SNB-19

COC(=O)[C@H]1ON2O[C@@H](O[C@H]3CCCC[C@@H]3C(C)(C)c3ccccc3)C[C@@H]3CC[C@H]1[C@@]32C was tested, and the GI50 (786-0) was > 100 µM (inactive), the GI50 (A498) was > 100 µM (inactive) and the GI50 (A549) was > 100 µM (inactive). The GI50 (ACHN) was > 100 µM (inactive), the GI50 (CAKI-1) was > 100 µM (inactive) and the GI50 (CCRF-CEM) was > 100 µM (inactive). For the same molecule, the GI50 (COLO 205) was > 100 µM (inactive), the GI50 (DU-145) was > 100 µM (inactive) and the GI50 (EKVX) was > 100 µM (inactive). The GI50 (HCC 2998) was > 100 µM (inactive), the GI50 (HCT-116) was > 100 µM (inactive) and the GI50 (HCT-15) was > 100 µM. The GI50 (HL-60) was > 100 µM (inactive), the GI50 (HOP-62) was > 100 µM (inactive) and the GI50 (HOP-92) was > 100 µM (inactive). For the same molecule, the GI50 (HT-29) was > 100 µM (inactive), the GI50 (Hs-578T) was > 100 µM (inactive) and the GI50 (IGROV-1) was > 100 µM (inactive). For the same molecule, the GI50 (K562) was > 100 µM (inactive), the GI50 (KM12) was > 100 µM (inactive) and the GI50 (LOX IMVI) was > 100 µM (inactive). The GI50 (M14) was > 100 µM (inactive), the GI50 (MCF7) was > 100 µM (inactive) and the GI50 (MDA-MB-435) was > 100 µM (inactive). The GI50 (MDA-N) was > 100 µM (inactive), the GI50 (MOLT-4) was > 100 µM (inactive) and the GI50 (NCI-H226) was > 100 µM (inactive). For the same molecule, the GI50 (NCI-H23) was > 100 µM (inactive), the GI50 (NCI-H460) was > 100 µM (inactive) and the GI50 (NCI-H522) was > 100 µM (inactive). The GI50 (NCI/ADR-RES) was > 100 µM (inactive), the GI50 (OVCAR-3) was > 100 µM (inactive) and the GI50 (OVCAR-5) was > 100 µM (inactive). The GI50 (OVCAR-8) was > 100 µM (inactive), the GI50 (RPMI-8226) was > 100 µM (inactive) and the GI50 (RXF 393) was > 100 µM (inactive). For the same molecule, the GI50 (SF-268) was > 100 µM (inactive), the GI50 (SF-295) was > 100 µM (inactive) and the GI50 (SK-MEL-5) was > 100 µM (inactive). For the same molecule, the GI50 (SK-OV-3) was > 100 µM (inactive), the GI50 (SN12C) was > 100 µM (inactive) and the GI50 (SNB-75) was > 100 µM (inactive). For the same molecule, the GI50 (SR) was > 100 µM (inactive), the GI50 (SW-620) was > 100 µM (inactive) and the GI50 (T47D) was > 100 µM (inactive). For the same molecule, the GI50 (TK-10) was > 100 µM (inactive), the GI50 (U-251) was > 100 µM (inactive) and the GI50 (UACC-257) was > 100 µM (inactive). The GI50 (UACC-62) was > 100 µM (inactive) and the GI50 (UO-31) was > 100 µM (inactive).
OCc1c2c(cc3c1CC1(C3)Cc3cc4c(c(CO)c3C1)CCC4)CCC2 was tested, and the GI50 (786-0) was 14.2 µM (inactive), the GI50 (A498) was 16.4 µM (inactive) and the GI50 (A549) was 14.4 µM (inactive). For the same molecule, the GI50 (ACHN) was 10.3 µM (inactive), the GI50 (CCRF-CEM) was 8 µM (inactive) and the GI50 (COLO 205) was 24.3 µM (inactive). The GI50 (EKVX) was 14.6 µM (inactive), the GI50 (HCC 2998) was 17.5 µM (inactive) and the GI50 (HCT-116) was 13.6 µM (inactive). For the same molecule, the GI50 (HCT-15) was 18 µM, the GI50 (HL-60) was 5.73 µM (inactive) and the GI50 (HOP-62) was 15.6 µM (inactive). For the same molecule, the GI50 (HOP-92) was 18.5 µM (inactive), the GI50 (HT-29) was 17.1 µM (inactive) and the GI50 (Hs-578T) was 17.5 µM (inactive). For the same molecule, the GI50 (IGROV-1) was 15.5 µM (inactive), the GI50 (K562) was 7.35 µM (inactive) and the GI50 (KM12) was 16.4 µM (inactive). The GI50 (LOX IMVI) was 15.1 µM (inactive), the GI50 (M14) was 18 µM (inactive) and the GI50 (MCF7) was 23.5 µM (inactive). For the same molecule, the GI50 (MDA-MB-231) was 15.2 µM (inactive), the GI50 (MDA-MB-435) was 20.6 µM (inactive) and the GI50 (MDA-N) was 15.1 µM (inactive). For the same molecule, the GI50 (MOLT-4) was 9.95 µM (inactive), the GI50 (Malme-3M) was 15.3 µM (inactive) and the GI50 (NCI-H226) was 11.6 µM (inactive). The GI50 (NCI-H23) was 13.1 µM (inactive), the GI50 (NCI-H522) was 13.3 µM (inactive) and the GI50 (NCI/ADR-RES) was 15.1 µM (inactive). For the same molecule, the GI50 (OVCAR-3) was 14.4 µM (inactive), the GI50 (OVCAR-4) was 10.1 µM (inactive) and the GI50 (OVCAR-5) was 19.8 µM (inactive). For the same molecule, the GI50 (OVCAR-8) was 18.6 µM (inactive), the GI50 (PC-3) was 15.3 µM (inactive) and the GI50 (RPMI-8226) was 21.1 µM (inactive). The GI50 (RXF 393) was 16.6 µM (inactive), the GI50 (SF-295) was 12.4 µM (inactive) and the GI50 (SF-539) was 17.4 µM (inactive). For the same molecule, the GI50 (SK-MEL-2) was 19.8 µM (inactive), the GI50 (SK-MEL-5) was 5.81 µM (inactive) and the GI50 (SK-OV-3) was 17.5 µM (inactive). For the same molecule, the GI50 (SN12C) was 16.9 µM (inactive), the GI50 (T47D) was 12.7 µM (inactive) and the GI50 (TK-10) was 19.6 µM (inactive). For the same molecule, the GI50 (U-251) was 15.8 µM (inactive), the GI50 (UACC-257) was 11.6 µM (inactive) and the GI50 (UACC-62) was 16.7 µM (inactive). For the same molecule, the GI50 (UO-31) was 1.67 µM (inactive).
In the case of CNC(=O)CCNC(=O)CCC(=O)OC, the GI50 (786-0) is reported as > 100 µM (inactive), the GI50 (A498) is reported as > 100 µM (inactive) and the GI50 (A549) is reported as > 100 µM (inactive). The GI50 (ACHN) was > 100 µM (inactive), the GI50 (CAKI-1) was > 100 µM (inactive) and the GI50 (COLO 205) was > 100 µM (inactive). The GI50 (DU-145) was > 100 µM (inactive), the GI50 (HCT-116) was > 100 µM (inactive) and the GI50 (HOP-62) was > 100 µM (inactive). For the same molecule, the GI50 (HT-29) was > 100 µM (inactive), the GI50 (K562) was > 100 µM (inactive) and the GI50 (KM12) was > 100 µM (inactive). For the same molecule, the GI50 (M14) was > 100 µM (inactive), the GI50 (MCF7) was > 100 µM (inactive) and the GI50 (MDA-MB-231) was > 100 µM (inactive). The GI50 (MDA-MB-435) was > 100 µM (inactive), the GI50 (MDA-N) was > 100 µM (inactive) and the GI50 (MOLT-4) was > 100 µM (inactive). For the same molecule, the GI50 (NCI-H23) was > 100 µM (inactive), the GI50 (NCI-H460) was > 100 µM (inactive) and the GI50 (NCI/ADR-RES) was > 100 µM (inactive). The GI50 (OVCAR-3) was > 100 µM (inactive), the GI50 (OVCAR-4) was > 100 µM (inactive) and the GI50 (OVCAR-5) was > 100 µM (inactive). The GI50 (OVCAR-8) was > 100 µM (inactive), the GI50 (PC-3) was > 100 µM (inactive) and the GI50 (RXF 393) was > 100 µM (inactive). The GI50 (SF-268) was > 100 µM (inactive), the GI50 (SF-295) was > 100 µM (inactive) and the GI50 (SF-539) was > 100 µM (inactive). The GI50 (SK-MEL-28) was > 100 µM (inactive), the GI50 (SK-MEL-2) was > 100 µM (inactive) and the GI50 (SK-MEL-5) was > 100 µM (inactive). The GI50 (SK-OV-3) was > 100 µM (inactive), the GI50 (SN12C) was > 100 µM (inactive) and the GI50 (SNB-19) was > 100 µM (inactive). For the same molecule, the GI50 (SW-620) was > 100 µM (inactive), the GI50 (T47D) was > 100 µM (inactive) and the GI50 (TK-10) was > 100 µM (inactive). The GI50 (U-251) was > 100 µM (inactive), the GI50 (UACC-62) was > 100 µM (inactive) and the GI50 (UO-31) was > 100 µM (inactive).
